The values below come from ChEMBL document CHEMBL3994618, “The long story of camptothecin: From traditional medicine to drugs” (Bioorg Med Chem Lett, 2017).

The series in a line: Drug excretion in human urine upto 24 hrs. Format: ADME. As to conditions: read-out: Drug excretion.

As for `CC[C@@]1(O)C(=O)OCc2c1cc1n(c2=O)Cc2cc3c(CN(C)C)c(O)ccc3nc2-1` [TOPOTECAN], the dose excreted at 24 h is 40%.
